{"source": "patent US10646488B2", "about": "(Araxes Pharma LLC, priority 2016, dated 2020)", "data": [{"target": "T1, KRAS G12C 1-169, his-tagged protein, GDP-loaded (Homo sapiens, UniProt P01116, G12C)", "T1 construct": "KRAS G12C 1-169, his-tagged protein, GDP-loaded", "assay": "Covalent binding (% modification) to KRAS G12C by mass spectrometry", "settings": "covalent binding to KRAS G12C after a ten minute incubation period", "method": "(§1) Test compounds were prepared as 10 mM stock solutions in DMSO (Fisher cat # BP-231-100). KRAS G12C 1-169, his-tagged protein, GDP-loaded was diluted to 2 μm in buffer (20 mM Hepes, 150 mM NaCl, 1 mM MgCl2). Compounds were tested for activity as follows:\n(§2) Compounds were diluted to 50× final test concentration in DMSO in 96-well storage plates. Compound stock solutions were vortexed before use and observed carefully for any sign of precipitation. Dilutions were as follow: • For 100 μM final compound concentration, compounds were diluted to 5000 μM (5 μl 10 mM compound stock+5 μl DMSO and mixed well by pipetting. • For 30 μM final compound concentration, compounds were diluted to 1500 μM (3 μl 10 mM compound stock+17 μl DMSO) and mixed well by pipetting. • For 10 μM final compound concentration, compounds were diluted to 500 μM (2 μl 10 mM compound stock+38 μl DMSO) and mixed well by pipetting. 49 μl of the stock protein solution was added to each well of a 96-well PCR plate (Fisher cat #1423027). 1 μl of the diluted 50× compounds were added to appropriate wells in the PCR plate using 12-channel pipettor. Reactions were mixed carefully and thoroughly by pipetting up/down with a 200·1 multi-channel pipettor. […] 5 μl of 2% formic acid (Fisher cat # A117) in DI H2O was then added to each well followed by mixing with a pipette. The plate was then resealed with aluminum seal and stored on dry ice until analyzed as described below.\n(§3) The above described assays were analyzed by mass spectrometry according to one of the following two procedures:\n(§4) The MS instrument is set to positive polarity, 2 GHz resolution, and low mass (1700) mode and allowed to equilibrate for 30 minutes. The instrument is then calibrated, switched to acquisition mode and the appropriate method loaded.\n(§5) After another 30 minute equilibration time, a blank batch (i.e., buffer) is run to ensure equipment is operating properly. The samples are thawed at 37° C. for 10 minutes, briefly centrifuged, and transfer to the bench top. Wells A1 and H12 are spiked with 1 uL 500 uM internal standard peptide, and the plates centrifuged at 2000×g for 5 minutes. The method is then run and masses of each individual well recorded.\n(§6) The masses (for which integration data is desired) for each well are pasted into the platemap and exported from the analysis. Masses for the internal standards are exported as well. The data at 50 ppm is extracted for the +19 charge state, and identity of well A1 is assigned using the internal standard spike and integrated. Peak data is exported as a TOF list and the above steps are repeated individually, for the +20, 21, 22, 23, 24, and 25 charge states.\n(§7) The masses and peak intensities of KRAS G12C protein species were measured using a Dionex RSLCnano system (Thermo Scientific) connected to a Q Exactive Plus mass spectrometer (Thermo Scientific).\n(§8) […] of sample was each loaded onto a Aeris™ 3.6 μm WIDEPORE C4 200 Å, LC Column 50×2.1 mm column maintained at 40° C. at a flow rate of 600 μl min^−1 with […] (0.1% formic acid in acetonitrile). The liquid chromatography conditions were 20% solvent B for 1 min, 20% to 60% solvent B for 1.5 min, 60% to 90% solvent for 0.5 min, 90% solvent B for 0.2 min, 90% to 20% solvent B for 0.2 min, and then equilibrated for 1.6 min before the following sample injection. The flow rate was maintained at 600 μl min^−1 throughout the sample analysis.\n(§9) The mass spectrometer was operated in profile mode at a resolution of 17500, 5 microscans, using 50 msec max injection time and an AGC target of 1e6, and a full mass range from 800-1850 m/z was recorded. The HCD trapping gas was optimized for maximum sensitivity for intact proteins. The ionization method was electrospray ionization, which used a spray voltage of 4 kV, sheath gas flow set to 50 au, auxiliary gas flow set to 10 au and sweep gas flow set to 1 au. […]", "values": [{"compound": "C=CC(=O)N1C[C@H](C)N(c2nc(OCCN(CC)CC)nc3c(F)c(-c4c(O)cccc4F)c(Cl)cc23)C[C@H]1C", "note": "(atropisomer, axis not shown) [Compound 74, 1-((2R,5S)-4-((R)-6-chloro-2-(2-(diethylamino)ethoxy)-8-fluoro-7-(2-fluoro-6-hydroxyphenyl)quinazolin-4-yl)-2,5-dimethyl-piperazin-1-yl) prop-2-en-1-one]", "Binding %": "+ (+ indicates binding activity up to 50%)"}, {"compound": "C=CC(=O)N1C[C@H](C)N(c2nc(OCCN(CC)CC)nc3c(F)c(-c4c(O)cccc4F)c(Cl)cc23)C[C@H]1C", "note": "(atropisomer, axis not shown) [Compound 75, 1-((2R,5S)-4-((S)-6-chloro-2-(2-(diethylamino)ethoxy)-8-fluoro-7-(2-fluoro-6-hydroxyphenyl)quinazolin-4-yl)-2,5-dimethyl-piperazin-1-yl) prop-2-en-1-one]", "Binding %": "+++ (+++ indicates binding activity greater than 90%)"}, {"compound": "C=CC(=O)N1C[C@H](C)N(c2nc(OCCN3CC(F)(F)C3)nc3c(F)c(-c4c(O)cccc4F)c(Cl)cc23)C[C@H]1C", "note": "(atropisomer, axis not shown) [Compound 83, 1-((2R,5S)-4-((R)-6-chloro-2-(2-(3,3-difluoroazetidin-1-yl)ethoxy)-8-fluoro-7-(2-fluoro-6-hydroxyphenyl)quinazolin-4-yl)-2,5-dimethyl-piperazin-1-yl) prop-2-en-1-one]", "Binding %": "+ (+ indicates binding activity up to 50%)"}, {"compound": "C=CC(=O)N1C[C@H](C)N(c2nc(OCCN3CC(F)(F)C3)nc3c(F)c(-c4c(O)cccc4F)c(Cl)cc23)C[C@H]1C", "note": "(atropisomer, axis not shown) [Compound 84, 1-((2R,5S)-4-((S)-6-chloro-2-(2-(3,3-difluoroazetidin-1-yl)ethoxy)-8-fluoro-7-(2-fluoro-6-hydroxyphenyl)quinazolin-4-yl)-2,5-dimethyl-piperazin-1-yl) prop-2-en-1-one]", "Binding %": "+++ (+++ indicates binding activity greater than 90%)"}]}, {"target": "T1, KRAS G12C 1-169, his-tagged protein, GDP-loaded", "assay": "Covalent binding (% modification) to KRAS G12C by mass spectrometry", "settings": "covalent binding to KRAS G12C after a three minute incubation period", "method": "as §1, §2, §3, §4, §5, §6, §7, §8, §9", "values": [{"compound": "C=CC(=O)N1C[C@H](C)N(c2nc(OCCN3CC(F)(F)C3)nc3c(F)c(-c4c(O)cccc4F)c(Cl)cc23)C[C@H]1C", "note": "(atropisomer, axis not shown) [Compound 89, 1-((2R,5S)-4-(6-chloro-2-(2-(3,3-difluoroazetidin-1-yl)ethoxy)-8-fluoro-7-((R)-2-fluoro-6-hydroxyphenyl)quinazolin-4-yl)-2,5-dimethyl-piperazin-1-yl) prop-2-en-1-one]", "Binding %": "+ (+ indicates binding activity greater than 0% and up to 50%)"}, {"compound": "C=CC(=O)N1C[C@H](C)N(c2nc(OCCN3CC(F)(F)C3)nc3c(F)c(-c4c(O)cccc4F)c(Cl)cc23)C[C@H]1C", "note": "(atropisomer, axis not shown) [Compound 90, 1-((2R,5S)-4-(6-chloro-2-(2-(3,3-difluoroazetidin-1-yl)ethoxy)-8-fluoro-7-((S)-2-fluoro-6-hydroxyphenyl)quinazolin-4-yl)-2,5-dimethyl-piperazin-1-yl) prop-2-en-1-one]", "Binding %": "+++ (+++ indicates binding activity greater than 90%)"}, {"compound": "C=CC(=O)N1C[C@H](C)N(c2nc(N3CC(NC)C3)nc3c(F)c(-c4c(C)ccc5cn[nH]c45)c(Cl)cc23)C[C@H]1C", "note": "(atropisomer, axis not shown) [Compound 108, 1-((2R,5S)-4-(6-chloro-8-fluoro-7-((R)-6-methyl-1H-indazol-7-yl)-2-(3-(methylamino)azetidin-1-yl)quinazolin-4-yl)-2,5-dimethyl-piperazin-1-yl) prop-2-en-1-one]", "Binding %": "+++ (+++ indicates binding activity greater than 90%)"}, {"compound": "C=CC(=O)N1C[C@H](C)N(c2nc(N3CC(NC)C3)nc3c(F)c(-c4c(C)ccc5cn[nH]c45)c(Cl)cc23)C[C@H]1C", "note": "(atropisomer, axis not shown) [Compound 109, 1-((2R,5S)-4-(6-chloro-8-fluoro-7-((S)-6-methyl-1H-indazol-7-yl)-2-(3-(methylamino)azetidin-1-yl)quinazolin-4-yl)-2,5-dimethyl-piperazin-1-yl) prop-2-en-1-one]", "Binding %": "+ (+ indicates binding activity greater than 0% and up to 50%)"}, {"compound": "C=CC(=O)N1C[C@H](C)N(c2nc(OCCN3CC(F)(F)C3)nc3c(F)c(-c4c(C)ccc5cn[nH]c45)c(Cl)cc23)C[C@H]1C", "note": "(atropisomer, axis not shown) [Compound 127, 1-((2R,5S)-4-(6-chloro-2-(2-(3,3-difluoroazetidin-1-yl)ethoxy)-8-fluoro-7-((R)-6-methyl-1H-indazol-7-yl)quinazolin-4-yl)-2,5-dimethyl-piperazin-1-yl) prop-2-en-1-one]", "Binding %": "+++ (+++ indicates binding activity greater than 90%)"}, {"compound": "C=CC(=O)N1C[C@H](C)N(c2nc(OCCN3CC(F)(F)C3)nc3c(F)c(-c4c(C)ccc5cn[nH]c45)c(Cl)cc23)C[C@H]1C", "note": "(atropisomer, axis not shown) [Compound 128, 1-((2R,5S)-4-(6-chloro-2-(2-(3,3-difluoroazetidin-1-yl)ethoxy)-8-fluoro-7-((S)-6-methyl-1H-indazol-7-yl)quinazolin-4-yl)-2,5-dimethyl-piperazin-1-yl) prop-2-en-1-one]", "Binding %": "+ (+ indicates binding activity greater than 0% and up to 50%)"}, {"compound": "C=CC(=O)N1C[C@H](C)N(c2nc(N3CC(N(C)C)C3)nc3c(F)c(-c4c(C)ccc5[nH]ncc45)c(Cl)cc23)C[C@H]1C", "note": "(atropisomer, axis not shown) [Compound 130, 1-((2R,5S)-4-(6-chloro-2-(3-(dimethylamino)azetidin-1-yl)-8-fluoro-7-((R)-5-methyl-1H-indazol-4-yl)quinazolin-4-yl)-2,5-dimethyl-piperazin-1-yl) prop-2-en-1-one]", "Binding %": "+++ (+++ indicates binding activity greater than 90%)"}, {"compound": "C=CC(=O)N1C[C@H](C)N(c2nc(N3CC(N(C)C)C3)nc3c(F)c(-c4c(C)ccc5[nH]ncc45)c(Cl)cc23)C[C@H]1C", "note": "(atropisomer, axis not shown) [Compound 131, 1-((2R,5S)-4-(6-chloro-2-(3-(dimethylamino)azetidin-1-yl)-8-fluoro-7-((S)-5-methyl-1H-indazol-4-yl)quinazolin-4-yl)-2,5-dimethyl-piperazin-1-yl) prop-2-en-1-one]", "Binding %": "+ (+ indicates binding activity greater than 0% and up to 50%)"}, {"compound": "C=CC(=O)N1C[C@H](C)N(c2nc(N3CC(N(C)C4CCC4)C3)nc3c(F)c(-c4c(O)cccc4F)c(Cl)cc23)C[C@H]1C", "note": "(atropisomer, axis not shown) [Compound 138, 1-((2R,5S)-4-(6-chloro-2-(3-(cyclobutyl (methyl)amino)azetidin-1-yl)-8-fluoro-7-((S)-2-fluoro-6-hydroxyphenyl)quinazolin-4-yl)-2,5-dimethyl-piperazin-1-yl) prop-2-en-1-one]", "Binding %": "+++ (+++ indicates binding activity greater than 90%)"}, {"compound": "C=CC(=O)N1C[C@H](C)N(c2nc(N3CC(N(C)C4CCC4)C3)nc3c(F)c(-c4c(O)cccc4F)c(Cl)cc23)C[C@H]1C", "note": "(atropisomer, axis not shown) [Compound 139, 1-((2R,5S)-4-(6-chloro-2-(3-(cyclobutyl (methyl)amino)azetidin-1-yl)-8-fluoro-7-((R)-2-fluoro-6-hydroxyphenyl)quinazolin-4-yl)-2,5-dimethyl-piperazin-1-yl) prop-2-en-1-one]", "Binding %": "+ (+ indicates binding activity greater than 0% and up to 50%)"}]}]}
